# “Also recorded” adds a separate entry of the source. Where two headings read alike, the source gives them in different places.
# What was measured:
# [1] = in vivo; cited from earlier work
# [2] = test system: Pseudomonas aeruginosa ATCC 10145; details: cited from earlier work
# [3] = test system: Klebsiella pneumoniae ATCC 10031; details: cited from earlier work
# [4] = cited from earlier work
# [5] = test system: Streptococcus haemolyticus = S. pyogenes C 203; details: Streptococcus haemolyticus C 203, cited from earlier work
# [6] = test system: Diplococcus pneumoniae = Streptococcus pneumoniae U.C. 41; details: Diplococcus pneumoniae U.C. 41; cited from earlier work
# [7] = test system: Staphylococcus aureus Tour Rif-resistant; details: cited from earlier work
# [8] = test system: Mycobacterium tuberculosis ATCC 9360 H37Rv; details: cited from earlier work
# [9] = test system: Mycobacterium tuberculosis virulent standard strain H37Rv; test: Standard resazurin-resorufin assay versus M. tuberculosis H37Rv; assay type: cell-based
# [10] = test system: Staphylococcus aureus Tour; details: cited from earlier work
# [11] = test system: Staphylococcus aureus ATCC 6538; details: cited from earlier work
# [12] = test system: Escherichia coli ATCC 10536; details: cited from earlier work
# [13] = test system: Staphylococcus aureus infection; details: cited from earlier work
# [14] = test system: Proteus vulgaris ATCC 881; details: cited from earlier work
# cancer cells = test: Cytotoxicity to cancer cells; assay type: cell-based
# NF-κB = test: NF-κB-luciferase reporter in mixed cultures of primary astrocytes and microglia; assay type: cell-based, mice; details: 1 μM, 10 μM and 100 μM, 3 hours; then Poly I:C, LPS or TNFα for 24 h
# [15] = Hydrolysis in formic acid-acidified (0.05%) HPLC eluent; assay type: physicochemical; details: compared with rifampicin
# Experimental: Compound stock solutions were diluted to 2 mM in DMSO and injected into an Agilent 1100 HPLC system using the following conditions for separation: Phenomenex Gemini C18 column, 3×50 mm; flow rate 0.45 ml/min; gradient 5-95% acetonitrile in water over 8 min with all solvents containing 0.05% formic acid. Detection used the following: UV detector—Agilent diode array, monitored at 214 and 254 nm; mass spectrometry detector (MSD)—Agilent MSD, electrospray ionization, positive mode.
# The chromatographic separation of TPR-1 is given in FIGS. 15A to C. • There are four peaks (4.462 min, 4.951 min, 5.657 min, 6.679 min) at 214 nm and 254 nm diode array UV detection • No other significant peaks are seen • The two main peaks (4.951 min, 5.657 min) stem from the two discernible, coexisting ionic forms of the rifamycin.
# [drawing 32] • In the above picture the left formula is zwitterionic, whereas the right formula is cationic. The zwitterionic form elutes at 4.951 min, since it is more polar, and the cationic form elutes at 5.657 min, since it is more lipophilic. The cationic form was integrated by IDRI as 59%. So the cationic form dominates in the formic acid-acidified (0.05%) HPLC eluent, as to be expected • The two small side peaks stem from hydrolysis of TPR-1 by the formic acid-acidified (0.05%) HPLC eluent. This is a phenomenon well-known for rifampcin (Ref. 2). […]
# Bacillus megaterium = test: Activity versus Bacillus megaterium; assay type: cell-based
# [16] = Chemical stability (atmospheric oxygen, hydrolysis, UV light)
# B. subtilis = test: Agar Disk Diffusion Assay with B. subtilis; assay type: cell-based, Bacillus subtilis
# [17] = test system: Human Hepatitis B Virus Subtype ayw; test: In vitro antiviral activity versus HBV ayw replication, DNA (Southern) hybridization; assay type: cell-based; details: HepG2 2.2.15
# [18] = Host cytotoxicity in HBV assay; details: human, HepG2 2.2.15 cells
# [19] = test system: Human Hepatitis B Virus Subtype ayw; test: In vitro antiviral activity versus HBV ayw replication, RT-qPCR; assay type: cell-based; details: HepG2 2.2.15
# HepG2 2.2.15 = test: Host cytotoxicity in HBV assay; details: HepG2 2.2.15; rows of RT-qPCR assay
# [20] = strain H37Rv, read-out: Minimal inhibitory concentration 99% (MIC99) in nmol/Liter
# [21] = strain H37Rv, read-out: Minimal inhibitory concentration 99% (MIC99) in μg/ml
compound,measurement,setting,value
"CO[C@H]1/C=C/O[C@@]2(C)Oc3c(C)c(O)c4c(O)c(c(/C=N/O)c(O)c4c3C2=O)NC(=O)/C(C)=C\C=C\[C@H](C)[C@H](O)[C@@H](C)[C@@H](O)[C@@H](C)[C@H](OC(C)=O)[C@@H]1C [OR-1, 3-Formylrifamycin SV (E)-oxime 1.2 hydrate]",Oral bioavailability,[1],orally bioavailable
same,MIC (μg/ml) reference 1 (1966),[2],10 µg/mL
same,MIC (μg/ml) reference 2 (1974),[2],10 µg/mL
same,MIC (μg/ml) reference 1 (1966),[3],20 µg/mL
same,MIC (μg/ml) reference 2 (1974),[3],20 µg/mL
same,In vivo lethal dose 50% (LD50) (mg/kg) intravenous in mice,[4],690 mg/kg
same,MIC (μg/ml) reference 1 (1966),[5],0.01 µg/mL
same,MIC (μg/ml) reference 2 (1974),[5],0.01 µg/mL
same,MIC (μg/ml) reference 2 (1974),[6],0.01 µg/mL
same,MIC (μg/ml) reference 2 (1974),[7],>100 µg/mL
same,MIC (μg/ml) reference 1 (1966),[8],5 µg/mL
same,MIC (μg/ml) reference 2 (1974),[8],5 µg/mL
same,MIC99,[9]; [20],787 nmol/L
same,MIC99,[9]; [21],0.6 µg/mL
same,MIC (μg/ml) reference 2 (1974),[10],0.02 µg/mL
same,MIC (μg/ml) reference 1 (1966),[11],0.02 µg/mL
same,MIC (μg/ml) reference 1 (1966),[12],5 µg/mL
same,MIC (μg/ml) reference 2 (1974),[12],5 µg/mL
same,"In vivo effective dose 50% (ED50) (mg/kg) in curing Staphylococcus aureus infection in mice, per os",[13],5.66 mg/kg
same,"In vivo effective dose 50% (ED50) (mg/kg) in curing Staphylococcus aureus infection in mice, subcutaneous",[13],2.46 mg/kg
same,MIC (μg/ml) reference 1 (1966),[14],10 µg/mL
same,MIC (μg/ml) reference 2 (1974),[14],10 µg/mL
"Tetrakis{3-[(tricyclo[3.3.1.1^3,7]decan-1-ammonio)methyl]benzyl}ammonium pentachloride [PT162]",Cytotoxicity to cancer cells,cancer cells,extremely cytotoxic to cancer cells
"(11,17)-17-Hydroperoxy-11-[3,4-(methylenedioxy)phenyl]-17-(1-propyn-1-yl)estra-4,9-dien-3-one-(11,17)-17-hydroxy-11-[3,4-(methylenedioxy)phenyl]-17-(1-propyn-1-yl)estra-4,9-dien-3-one (1:1) [PT157]",Luciferase activity (suppression of inflammation),NF-κB,dose dependent decrease of luciferase activity
"CO[C@H]1/C=C/O[C@@]2(C)Oc3c(C)c(O)c4c(O)c(c(/C=N/N5CC[N+](C)(CC#C[Si](C)(C)C)CC5)c([O-])c4c3C2=O)NC(=O)/C(C)=C\C=C\[C@H](C)[C@H](O)[C@@H](C)[C@@H](O)[C@@H](C)[C@H](OC(C)=O)[C@@H]1C [TPR-1, Nω[3-(Trimethylsilyl)prop-2-yn-1-yl]rifampicinium-4-olate×¾ HBr×H2O]",Susceptibility to hydrolysis of the hydrazone imine group in acidic media,[15],more susceptible to this hydrolysis than rifampicin
same,Activity versus Bacillus megaterium,Bacillus megaterium,highly active
same,MIC99,[9]; [20],19.8 to 39.5 nmol/L
same,MIC99,[9]; [21],0.02 to 0.04 µg/mL
same,Oxidation by atmospheric oxygen,[16],not oxidized by atmospheric oxygen; also recorded: resistant to oxidation
same,Stability towards hydrolysis and UV light,[16],enhanced stability towards hydrolysis and UV light
same,Activity versus Bacillus subtilis,B. subtilis,highly active
same,zone of inhibition at 1 µg/disc,"B. subtilis; Bacillus subtilis, paper disc with 1 μg, overnight at 30° C., read-out: Clearance zones (in mm)",18.3 mm
same,zone of inhibition at 10 µg/disc,"B. subtilis; Bacillus subtilis, paper disc with 10 μg, overnight at 30° C., read-out: Clearance zones (in mm)",21.1 mm
same,Luciferase activity (suppression of inflammation),NF-κB,dose dependent decrease of luciferase activity
"CO[C@H]1/C=C/O[C@@]2(C)Oc3c(C)c(O)c4c(O)c(c(/C=N/N5CCN(C)CC5)c(O)c4c3C2=O)NC(=O)/C(C)=C\C=C\[C@H](C)[C@H](O)[C@@H](C)[C@@H](O)[C@@H](C)[C@H](OC(C)=O)[C@@H]1C [Rifampicin, reference compound]",MIC99,"[9]; H37RV, read-out: Minimal inhibitory concentration 99% (MIC99) in nmol/Liter (nM)",72.7 nmol/L
same,MIC99,"[9]; H37RV, read-out: Minimal inhibitory concentration 99% (MIC99) in μg/ml",0.06 µg/mL
Nc1ccn([C@@H]2CS[C@H](CO)O2)c(=O)n1 [Lamivudine],EC50,[17],0.026 µM
same,EC90,[17],0.116 µM
same,CC50,[18],2190 µM
"CO/N=C/c1c2c(O)c3c(O)c(C)c4c(c3c1O)C(=O)[C@@](C)(O/C=C/[C@H](OC)[C@@H](C)[C@@H](OC(C)=O)[C@H](C)[C@H](O)[C@H](C)[C@@H](O)[C@@H](C)/C=C/C=C(/C)C(=O)N2)O4 [MR-1, (2S,12Z,14E,16S,17S,18R,19R,20R,21S,22R,23S,24E)-21-(acetyloxy)-5,6,9,17,19-pentahydroxy-23-methoxy-8-[(E)-(methoxyimino)methyl]-2,4,12,16,18,20,22-heptamethyl-2,7-(epoxypentadeca[1,11,13]trienimino)naphtho[2,1-b]furan-1,11(2H)-dione]",Oral bioavailability,[1],more orally bioavailable than OR-1
same,MIC (μg/ml) reference 1 (1966),[2],10 µg/mL
same,MIC (μg/ml) reference 2 (1974),[2],10 µg/mL
same,MIC (μg/ml) reference 1 (1966),[3],10 µg/mL
same,MIC (μg/ml) reference 2 (1974),[3],10 µg/mL
same,In vivo lethal dose 50% (LD50) (mg/kg) intravenous in mice,[4],152 mg/kg
same,MIC (μg/ml) reference 1 (1966),[5],0.01 µg/mL
same,MIC (μg/ml) reference 2 (1974),[5],0.01 µg/mL
same,MIC (μg/ml) reference 2 (1974),[6],0.01 µg/mL
same,MIC (μg/ml) reference 2 (1974),[7],>100 µg/mL
same,MIC (μg/ml) reference 1 (1966),[8],0.1 µg/mL
same,MIC (μg/ml) reference 2 (1974),[8],0.05 µg/mL
same,MIC99,[9]; [20],106 nmol/L
same,MIC99,[9]; [21],0.08 µg/mL
same,MIC (μg/ml) reference 2 (1974),[10],0.002 µg/mL
same,MIC (μg/ml) reference 1 (1966),[11],0.0005 µg/mL
same,MIC (μg/ml) reference 1 (1966),[12],5 µg/mL
same,MIC (μg/ml) reference 2 (1974),[12],5 µg/mL
same,"In vivo effective dose 50% (ED50) (mg/kg) in curing Staphylococcus aureus infection in mice, per os",[13],0.53 mg/kg
same,"In vivo effective dose 50% (ED50) (mg/kg) in curing Staphylococcus aureus infection in mice, subcutaneous",[13],0.87 mg/kg
same,MIC (μg/ml) reference 1 (1966),[14],2 µg/mL
same,MIC (μg/ml) reference 2 (1974),[14],2 µg/mL
"⅓(11β,17β)-17-Hydroxy-11-[3,4-(methylenedioxy)phenyl]-17-(1-propyn-1-yl)estra-4,9-dien-3-one (PT150)×(2EZ)-2-{(11β,17β)-17-hydroxy-11-[3,4-(methylenedioxy)phenyl]-17-(1-propyn-1-yl)estra-4,9-dien-3-ylidene}hydrazinecarbothioamide [71.8% (E), 28.2% (Z)]×⅓ H2O× 7/9 acetone [PT155]",Solubility in organic solvents,"Solubility; ethanol, acetone, DMSO, DMF, ethyl acetate, and chloroform",very soluble
same,Solubility in water,Solubility; water,not soluble in water initially
same,EC50,[19],10.8 µM
same,EC90,[19],> 100 µM
same,Luciferase activity (suppression of inflammation),NF-κB,dose dependent decrease of luciferase activity
same,CC50,HepG2 2.2.15,> 100 µM
